# Like-named read-outs stand apart in the source and are kept apart here.
# Key:
# Test in all cases: organism not typed
# [1] = tested on: Enterobacterales expressing class A ESBLs; format: cell-based, E. coli, K. pneumoniae
# [2] = tested on: Enterobacterales expressing class A carbapenemases (KPC); format: cell-based, K. pneumoniae, E. coli, E. cloacae, Klebsiella oxytoca
# [3] = tested on: Enterobacterales expressing class D oxacillinases (OXA-48/48-like); format: cell-based, E. coli, K. pneumoniae
# [4] = 25 isolates, BLI fixed at 4 μg/ml, AMC 2:1
structure (smiles),measurement,setting,value
"Nc1nc(/C(=C/CC(=O)O)C(=O)N[C@@H]2C(=O)N3C(C(=O)O)=CCS[C@H]23)cs1 [CTB, ceftibuten]",MIC50,[1],8 µg/mL
same,MIC90,[1],≥ 64 µg/mL
same,MIC50,[2],16 µg/mL
same,MIC90,[2],≥ 64 µg/mL
same,MIC90,[2]; [4],≥ 64 µg/mL
same,MIC,[2]; E. cloacae 847426 (KPC),≥ 64 µg/mL
same,MIC,[2]; E. cloacae 847429 (KPC),16 µg/mL
same,MIC,"[2]; E. cloacae OIMGH49 (p99 AmpC, ACT-2, KPC-2, TEM-1)",≥ 64 µg/mL
same,MIC,[2]; E. coli 786978 (KPC),32 µg/mL
same,MIC,[2]; K. oxytoca 847537 (KPC),≥ 64 µg/mL
same,MIC,[2]; K. oxytoca 847539 (KPC),0.5 µg/mL
same,MIC,"[2]; K. pneumoniae 155140 (AmpC, KPC-2, SHV-12, TEM-1)",≥ 64 µg/mL
same,MIC,[2]; K. pneumoniae 845661 (KPC),32 µg/mL
same,MIC,[2]; K. pneumoniae 845662 (KPC),16 µg/mL
same,MIC,[2]; K. pneumoniae 845665 (KPC),32 µg/mL
same,MIC,[2]; K. pneumoniae 845667 (KPC),16 µg/mL
same,MIC,[2]; K. pneumoniae 845670 (KPC),0.5 µg/mL
same,MIC,[2]; K. pneumoniae 845904 (KPC),1 µg/mL
same,MIC,[2]; K. pneumoniae 847204 (KPC),16 µg/mL
same,MIC,[2]; K. pneumoniae 847375 (KPC),8 µg/mL
same,MIC,[2]; K. pneumoniae 847378 (KPC),8 µg/mL
same,MIC,[2]; K. pneumoniae 847379 (KPC),8 µg/mL
same,MIC,[2]; K. pneumoniae 847383 (KPC),8 µg/mL
same,MIC,[2]; K. pneumoniae 847384 (KPC),8 µg/mL
same,MIC,[2]; K. pneumoniae 847387 (KPC),16 µg/mL
same,MIC,[2]; K. pneumoniae 847747 (KPC),4 µg/mL
same,MIC,[2]; K. pneumoniae 848832 (KPC),16 µg/mL
same,MIC,[2]; K. pneumoniae 848844 (KPC),16 µg/mL
same,MIC,[2]; K. pneumoniae 897067 (KPC),2 µg/mL
same,MIC,"[2]; K. pneumoniae UMM (KPC-2, SHV-5, TEM-1)",1 µg/mL
same,MIC50,[3]; [4],16 µg/mL
same,MIC90,[3]; [4],≥ 64 µg/mL
same,MIC,[3]; E. coli 664507 (OXA-48),16 µg/mL
same,MIC,[3]; E. coli 664516 (OXA-48),32 µg/mL
same,MIC,[3]; E. coli 664520 (OXA-48),16 µg/mL
same,MIC,[3]; E. coli 664522 (OXA-48),32 µg/mL
same,MIC,[3]; E. coli 664523 (OXA-48),16 µg/mL
same,MIC,[3]; E. coli 664524 (OXA-48),16 µg/mL
same,MIC,[3]; E. coli 664525 (OXA-48),32 µg/mL
same,MIC,[3]; E. coli 664526 (OXA-48),16 µg/mL
same,MIC,[3]; E. coli 664528 (OXA-48),16 µg/mL
same,MIC,[3]; E. coli 787112 (OXA-48),≥ 64 µg/mL
same,MIC,[3]; E. coli SI-422 (OXA-48),0.25 µg/mL
same,MIC,[3]; E. coli VER (OXA-48),0.06 µg/mL
same,MIC,[3]; K. pneumoniae 6299 (OXA-163),8 µg/mL
same,MIC,"[3]; K. pneumoniae 515746 (OXA-48), first line",16 µg/mL
same,MIC,"[3]; K. pneumoniae 515746 (OXA-48), second line",16 µg/mL
same,MIC,[3]; K. pneumoniae 664438 (OXA-48),16 µg/mL
same,MIC,[3]; K. pneumoniae 664439 (OXA-48),16 µg/mL
same,MIC,[3]; K. pneumoniae 664509 (OXA-48),≥ 64 µg/mL
same,MIC,[3]; K. pneumoniae 664518 (OXA-48),32 µg/mL
same,MIC,[3]; K. pneumoniae 722870 (OXA-48),8 µg/mL
same,MIC,[3]; K. pneumoniae BAH (OXA-204),≥ 64 µg/mL
same,MIC,[3]; K. pneumoniae DEL (OXA-232),≥ 64 µg/mL
same,MIC,[3]; K. pneumoniae DOV (OXA-48),8 µg/mL
same,MIC,[3]; K. pneumoniae KIRK (OXA-162),8 µg/mL

# — publication PMC8284453 (Antimicrobial Agents and Chemotherapy, 2021)
